What was measured:
Assay type in all cases: in vivo
[1] = system: Alopecurus myosuroides (ALOMY); test: Herbicidal pre-emergence action; details: graded after ca. 3 weeks
Method in brief: (§1)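 Sandy loam, seeds covered with soil → compound (WP or EC, +0.5% additive, 600 l water/ha, ≤1280 g/ha) onto covering soil → greenhouse, optimum conditions → visual % damage at ~3 wk vs untreated.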

Avena fatua (AVEFA) [2] = test: Herbicidal pre-emergence action; details: graded after ca. 3 weeks
Method in brief: as §1

[3] = system: Cyperus esculentus (CYPES); test: Herbicidal pre-emergence action; details: graded after ca. 3 weeks
Method in brief: as §1

[4] = system: Echinochloa crus-galli (ECHCG); test: Herbicidal pre-emergence action; details: 1280 g/ha, graded after ca. 3 weeks
Method in brief: as §1

[5] = system: Lolium multiflorum (LOLMU); test: Herbicidal pre-emergence action; details: 1280 g/ha, graded after ca. 3 weeks
Method in brief: as §1

[6] = system: Polygonum convolvulus (POLCO); test: Herbicidal pre-emergence action; details: graded after ca. 3 weeks
Method in brief: as §1

Setaria viridis (SETVI) [7] = test: Herbicidal pre-emergence action; details: 1280 g/ha, graded after ca. 3 weeks
Method in brief: as §1

Veronica persica (VERPE) = test: Herbicidal pre-emergence action; details: graded after ca. 3 weeks
Method in brief: as §1

[8] = system: Alopecurus myosuroides (ALOMY); test: Herbicidal post-emergence action; details: assessed after ca. 3 weeks
Method in brief: (§2)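 Weeds grown in sandy loam in the greenhouse were sprayed post-emergence at the single-leaf stage, 2 to 3 weeks after sowing, with WP or EC formulations in water plus 0.5% additive at 600 l water/ha, at rates of 1280 g/ha or 320 g/ha. Damage was scored visually after ca. 3 weeks against untreated controls (0% = as control, 100% = plants dead).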

Avena fatua (AVEFA) [9] = test: Herbicidal post-emergence action; details: assessed after ca. 3 weeks
Method in brief: as §2

[10] = system: Echinochloa crus-galli (ECHCG); test: Herbicidal post-emergence action; details: assessed after ca. 3 weeks
Method in brief: as §2

[11] = system: Lolium multiflorum (LOLMU); test: Herbicidal post-emergence action; details: assessed after ca. 3 weeks
Method in brief: as §2

[12] = system: Polygonum convolvulus (POLCO); test: Herbicidal post-emergence action; details: assessed after ca. 3 weeks
Method in brief: as §2

Setaria viridis (SETVI) [13] = test: Herbicidal post-emergence action; details: 1280 g/ha, assessed after ca. 3 weeks
Method in brief: as §2

[14] = system: Digitaria sanguinalis (DIGSA); test: Herbicidal post-emergence action; details: 320 g/ha, assessed after ca. 3 weeks
Method in brief: as §2

[15] = system: Digitaria sanguinalis (DIGSA); test: Herbicidal pre-emergence action; details: 320 g/ha, graded after ca. 3 weeks
Method in brief: as §1

Viola tricolor (VIOTR) = test: Herbicidal pre-emergence action; details: 320 g/ha, graded after ca. 3 weeks
Method in brief: as §1

Structure (SMILES): CC(C)(C)COC(=O)CC1CCC(=O)N1Cc1cccc(F)c1F (racemic) [Example I-018]
- Pre-emergence activity against ALOMY ([1]; 1280 g/ha): 90%
- Pre-emergence activity against AVEFA (Avena fatua (AVEFA) [2]; 1280 g/ha): 100%
- Pre-emergence activity against CYPES ([3]; 1280 g/ha): 80%
- Pre-emergence activity against ECHCG [4]: 90%
- Pre-emergence activity against LOLMU [5]: 90%
- Pre-emergence activity against POLCO ([6]; 1280 g/ha): 80%
- Pre-emergence activity against SETVI (Setaria viridis (SETVI) [7]): 90%
- Pre-emergence activity against VERPE (Veronica persica (VERPE); 1280 g/ha): 90%
- Post-emergence activity against ALOMY ([8]; 1280 g/ha): 80%
- Post-emergence activity against AVEFA (Avena fatua (AVEFA) [9]; 1280 g/ha): 80%
- Post-emergence activity against ECHCG ([10]; 1280 g/ha): 90%
- Post-emergence activity against LOLMU ([11]; 1280 g/ha): 80%

Structure (SMILES): CCCNC(=O)CC1CCC(=O)N1Cc1cccc(F)c1F (racemic) [Example I-110]
- Post-emergence activity against POLCO ([12]; 1280 g/ha): 80%

Structure (SMILES): Cc1ccc(OCCOC(=O)CC2CCC(=O)N2Cc2cccc(F)c2F)cc1 (stereo not drawn) [Example I-034, 2-(4-methylphenoxy)ethyl 2-[1-[(2,3-difluorophenyl)methyl]-5-oxo-pyrrolidin-2-yl]acetate]
- Pre-emergence activity against ALOMY ([1]; 1280 g/ha): 90%
- Pre-emergence activity against AVEFA (Avena fatua (AVEFA) [2]; 1280 g/ha): 100%
- Pre-emergence activity against ECHCG [4]: 80%
- Pre-emergence activity against VERPE (Veronica persica (VERPE); 1280 g/ha): 100%
- Post-emergence activity against ALOMY ([8]; 1280 g/ha): 80%
- Post-emergence activity against ECHCG ([10]; 1280 g/ha): 90%
- Post-emergence activity against LOLMU ([11]; 1280 g/ha): 90%
- Post-emergence activity against POLCO ([12]; 1280 g/ha): 80%
- Post-emergence activity against SETVI (Setaria viridis (SETVI) [13]): 80%

Structure (SMILES): Cc1cccc(CN2C(=O)CCC2CC(=O)O)c1C (racemic) [Example I-194]
- Post-emergence activity against DIGSA [14]: 90%

Structure (SMILES): O=C(CC1CCC(=O)N1Cc1cccc(F)c1F)NN1CCCC1 (stereo not drawn) [Example I-200, 2-[1-[(2,3-difluorophenyl)methyl]-5-oxo-pyrrolidin-2-yl]-N-(pyrrolidin-1-yl)acetamide]
- Pre-emergence activity against AVEFA (Avena fatua (AVEFA) [2]; 320 g/ha): 100%
- Pre-emergence activity against DIGSA [15]: 80%
- Pre-emergence activity against POLCO ([6]; 320 g/ha): 90%
- Pre-emergence activity against VIOTR (Viola tricolor (VIOTR)): 80%
- Post-emergence activity against ALOMY ([8]; 320 g/ha): 80%
- Post-emergence activity against AVEFA (Avena fatua (AVEFA) [9]; 320 g/ha): 80%
- Post-emergence activity against DIGSA [14]: 80%

Structure (SMILES): O=C(CC1CCC(=O)N1Cc1cccc(F)c1F)N1CCCC1 (racemic) [Example I-071]
- Pre-emergence activity against ALOMY ([1]; 1280 g/ha): 80%
- Pre-emergence activity against AVEFA (Avena fatua (AVEFA) [2]; 1280 g/ha): 90%
- Pre-emergence activity against POLCO ([6]; 1280 g/ha): 80%
- Post-emergence activity against AVEFA (Avena fatua (AVEFA) [9]; 1280 g/ha): 80%
- Post-emergence activity against POLCO ([12]; 1280 g/ha): 80%

Structure (SMILES): COC(=O)[C@H](Cc1c[nH]cn1)NC(=O)CC1CCC(=O)N1Cc1cccc(F)c1F (single isomer, unassigned) [Example I-037]
- Pre-emergence activity against ALOMY ([1]; 1280 g/ha): 90%
- Pre-emergence activity against AVEFA (Avena fatua (AVEFA) [2]; 1280 g/ha): 100%
- Pre-emergence activity against CYPES ([3]; 1280 g/ha): 100%
- Pre-emergence activity against ECHCG [4]: 90%
- Pre-emergence activity against LOLMU [5]: 90%
- Pre-emergence activity against SETVI (Setaria viridis (SETVI) [7]): 90%
- Post-emergence activity against ALOMY ([8]; 1280 g/ha): 80%
- Post-emergence activity against AVEFA (Avena fatua (AVEFA) [9]; 1280 g/ha): 90%
- Post-emergence activity against POLCO ([12]; 1280 g/ha): 80%

Structure (SMILES): C=CCCOC(=O)CC1CCC(=O)N1Cc1cccc(F)c1F (racemic) [Example I-026]
- Pre-emergence activity against ALOMY ([1]; 1280 g/ha): 90%
- Pre-emergence activity against AVEFA (Avena fatua (AVEFA) [2]; 1280 g/ha): 100%
- Pre-emergence activity against CYPES ([3]; 1280 g/ha): 90%
- Pre-emergence activity against ECHCG [4]: 90%
- Pre-emergence activity against LOLMU [5]: 90%
- Pre-emergence activity against SETVI (Setaria viridis (SETVI) [7]): 80%
- Post-emergence activity against ALOMY ([8]; 1280 g/ha): 80%
- Post-emergence activity against AVEFA (Avena fatua (AVEFA) [9]; 1280 g/ha): 90%
- Post-emergence activity against ECHCG ([10]; 1280 g/ha): 80%
- Post-emergence activity against LOLMU ([11]; 1280 g/ha): 80%
- Post-emergence activity against POLCO ([12]; 1280 g/ha): 80%

Structure (SMILES): O=C(CC1CCC(=O)N1Cc1cccc(F)c1F)OC1CCCC1 (racemic) [Example I-017]
- Pre-emergence activity against ALOMY ([1]; 1280 g/ha): 90%
- Pre-emergence activity against AVEFA (Avena fatua (AVEFA) [2]; 1280 g/ha): 100%
- Pre-emergence activity against ECHCG [4]: 90%
- Pre-emergence activity against LOLMU [5]: 80%
- Pre-emergence activity against POLCO ([6]; 1280 g/ha): 80%
- Pre-emergence activity against SETVI (Setaria viridis (SETVI) [7]): 90%
- Post-emergence activity against ALOMY ([8]; 1280 g/ha): 80%
- Post-emergence activity against AVEFA (Avena fatua (AVEFA) [9]; 1280 g/ha): 90%
- Post-emergence activity against ECHCG ([10]; 1280 g/ha): 90%
- Post-emergence activity against POLCO ([12]; 1280 g/ha): 80%

Structure (SMILES): C#CCOC(=O)CC1CCC(=O)N1Cc1cccc(F)c1F (racemic) [Example I-023]
- Pre-emergence activity against ALOMY ([1]; 1280 g/ha): 90%
- Pre-emergence activity against AVEFA (Avena fatua (AVEFA) [2]; 1280 g/ha): 100%
- Pre-emergence activity against CYPES ([3]; 1280 g/ha): 80%
- Pre-emergence activity against ECHCG [4]: 80%
- Pre-emergence activity against LOLMU [5]: 80%
- Pre-emergence activity against SETVI (Setaria viridis (SETVI) [7]): 90%
- Pre-emergence activity against VERPE (Veronica persica (VERPE); 1280 g/ha): 80%
- Post-emergence activity against ALOMY ([8]; 1280 g/ha): 80%
- Post-emergence activity against AVEFA (Avena fatua (AVEFA) [9]; 1280 g/ha): 80%
- Post-emergence activity against ECHCG ([10]; 1280 g/ha): 90%
- Post-emergence activity against LOLMU ([11]; 1280 g/ha): 80%
- Post-emergence activity against SETVI (Setaria viridis (SETVI) [13]): 80%

Structure (SMILES): COC(=O)C(C(=O)CC1CCC(=O)N1Cc1cccc(F)c1F)C(=O)OC (racemic) [Example I-176]
- Pre-emergence activity against ALOMY ([1]; 1280 g/ha): 90%
- Pre-emergence activity against AVEFA (Avena fatua (AVEFA) [2]; 1280 g/ha): 100%
- Pre-emergence activity against ECHCG [4]: 90%
- Pre-emergence activity against LOLMU [5]: 90%
- Pre-emergence activity against POLCO ([6]; 1280 g/ha): 80%
- Post-emergence activity against ALOMY ([8]; 1280 g/ha): 90%
- Post-emergence activity against AVEFA (Avena fatua (AVEFA) [9]; 1280 g/ha): 80%
- Post-emergence activity against ECHCG ([10]; 1280 g/ha): 90%
- Post-emergence activity against LOLMU ([11]; 1280 g/ha): 80%
- Post-emergence activity against POLCO ([12]; 1280 g/ha): 90%
- Post-emergence activity against SETVI (Setaria viridis (SETVI) [13]): 80%

Structure (SMILES): Cc1ccc(SCCOC(=O)CC2CCC(=O)N2Cc2cccc(F)c2F)cc1 (racemic) [Example I-041]
- Pre-emergence activity against ALOMY ([1]; 320 g/ha): 80%
- Pre-emergence activity against AVEFA (Avena fatua (AVEFA) [2]; 320 g/ha): 90%
- Pre-emergence activity against VERPE (Veronica persica (VERPE); 320 g/ha): 90%
- Post-emergence activity against ALOMY ([8]; 320 g/ha): 80%
- Post-emergence activity against ECHCG ([10]; 320 g/ha): 90%
- Post-emergence activity against LOLMU ([11]; 320 g/ha): 80%
- Post-emergence activity against POLCO ([12]; 320 g/ha): 80%

Structure (SMILES): O=C(CC1CCC(=O)N1Cc1cccc(F)c1F)OCCOc1ccccc1 (racemic) [Example I-027]
- Pre-emergence activity against ALOMY ([1]; 320 g/ha): 80%
- Pre-emergence activity against AVEFA (Avena fatua (AVEFA) [2]; 320 g/ha): 90%
- Pre-emergence activity against CYPES ([3]; 320 g/ha): 80%
- Post-emergence activity against ECHCG ([10]; 320 g/ha): 90%
- Post-emergence activity against LOLMU ([11]; 320 g/ha): 80%
- Post-emergence activity against POLCO ([12]; 320 g/ha): 80%

Structure (SMILES): COc1ccc(SCCOC(=O)CC2CCC(=O)N2Cc2cccc(F)c2F)cc1 (racemic) [Example I-040]
- Pre-emergence activity against ALOMY ([1]; 1280 g/ha): 90%
- Pre-emergence activity against AVEFA (Avena fatua (AVEFA) [2]; 1280 g/ha): 90%
- Pre-emergence activity against CYPES ([3]; 1280 g/ha): 80%
- Pre-emergence activity against ECHCG [4]: 80%
- Pre-emergence activity against VERPE (Veronica persica (VERPE); 1280 g/ha): 90%
- Post-emergence activity against ALOMY ([8]; 1280 g/ha): 90%
- Post-emergence activity against ECHCG ([10]; 1280 g/ha): 80%
- Post-emergence activity against LOLMU ([11]; 1280 g/ha): 80%
- Post-emergence activity against POLCO ([12]; 1280 g/ha): 80%

Structure (SMILES): O=C(CC1CCC(=O)N1Cc1cccc(F)c1F)Nc1nnc(C(F)F)s1 (racemic) [Example I-195]
- Pre-emergence activity against VIOTR (Viola tricolor (VIOTR)): 80%
